Assay results published in US20250188042A1, “HETEROCYCLIC COMPOUND, PREPARATION METHOD THEREFOR, AND USE THEREOF” (SICHUAN UNIVERSITY, priority 2023, published 2025).

What follows are molecules tested on HSC-4 (assay: CCK8 proliferation assay on squamous cell carcinoma cell line HSC-4). Conditions: Homo sapiens, second of two lines listed (HSC-3, HSC-4), 48 h, read-out: IC50 against SCC cells (second of two SCC cells).
Assay type: cell-based
Method: (§1) Squamous cell carcinoma cell lines: HSC-3, HSC-4.
(§2) The above two tumor cell lines were cultured in a standardized incubator at 37° C. under 5% CO2; the cells in logarithmic growth phase were digested and counted, followed by seeding in a 96-well plate at 3000 cells/well, and then cultured overnight in an incubator. The stock solution of each compound was prepared using DMSO at a concentration of 10 mM, and diluted sequentially (0, 1.25, 2.5, 5, 10 μM) before treating the cells. The control group was added with the highest concentration of DMSO, and then cultivated continuously in an incubator for 48 h. The CCK8 cell proliferation kit was used to detect the effect of each compound on the proliferation of tumor cells. Moreover, the experimental results of representative compounds were analyzed, and their IC50 values were calculated to evaluate the effect of the compounds on the proliferation of tumor cells.

| Compound | IC50 |
| --- | --- |
| O=C(CCn1ccc(=O)n(CCC(=O)Nc2ccc(C34CC5CC(CC(C5)C3)C4)cc2)c1=O)Nc1ccc(C23CC4CC(CC(C4)C2)C3)cc1 [Compound 8a] | 9.87 µM |

What follows are molecules tested on SCC cells (assay: CCK8 proliferation assay on SCC cells (cell line not specified)). Conditions: SCC cell line not stated (HSC-3 or HSC-4), 48 h, read-out: IC50 against SCC cells.
Assay type: cell-based
Method: as §1, §2

| Compound | IC50 |
| --- | --- |
| CCc1cn(CCC(=O)Nc2ccc(C34CC5CC(CC(C5)C3)C4)cc2)c(=O)n(CCC(=O)Nc2ccc(C34CC5CC(CC(C5)C3)C4)cc2)c1=O [Compound 10a] | 6.18 µM |
| N#Cc1cn(CCC(=O)Nc2ccc(C34CC5CC(CC(C5)C3)C4)cc2)c(=O)n(CCC(=O)Nc2ccc(C34CC5CC(CC(C5)C3)C4)cc2)c1=O [Compound 12a] | 9.54 µM |
| COc1cn(CCC(=O)Nc2ccc(C34CC5CC(CC(C5)C3)C4)cc2)c(=O)n(CCC(=O)Nc2ccc(C34CC5CC(CC(C5)C3)C4)cc2)c1=O [Compound 14a] | 6.18 µM |
| O=C(CCn1cc(Cl)c(=O)n(CCC(=O)Nc2ccc(C34CC5CC(CC(C5)C3)C4)cc2)c1=O)Nc1ccc(C23CC4CC(CC(C4)C2)C3)cc1 [Compound 16a] | 9.66 µM |
| O=C(CCn1cc(Br)c(=O)n(CCC(=O)Nc2ccc(C34CC5CC(CC(C5)C3)C4)cc2)c1=O)Nc1ccc(C23CC4CC(CC(C4)C2)C3)cc1 [Compound 18a] | 4.85 µM |
| O=C(CCn1cc(I)c(=O)n(CCC(=O)Nc2ccc(C34CC5CC(CC(C5)C3)C4)cc2)c1=O)Nc1ccc(C23CC4CC(CC(C4)C2)C3)cc1 [Compound 20a] | 4.86 µM |
| Nc1ccn(CCC(=O)Nc2ccc(C34CC5CC(CC(C5)C3)C4)cc2)c(=O)n1 [Compound 24] | 1.48 µM |

These molecules were tested on HSC-3 (assay: CCK8 proliferation assay on squamous cell carcinoma cell line HSC-3). Conditions: Homo sapiens, first of two lines listed (HSC-3, HSC-4), 48 h, read-out: IC50 against SCC cells (first of two SCC cells).
Assay type: cell-based
Method: as §1, §2

| Compound | IC50 |
| --- | --- |
| O=C(CCn1ccc(=O)n(CCC(=O)Nc2ccc(C34CC5CC(CC(C5)C3)C4)cc2)c1=O)Nc1ccc(C23CC4CC(CC(C4)C2)C3)cc1 [Compound 8a] | 4.85 µM |
